What all share (assay type): biochemical
The test system of one data set is P. yoelii PNP. The data set can be described thus: Phosphorylase activity assay, kinetic constants of recombinant PyPNP. The conditions noted are these: for Km / kcat: substrate of P. yoelii PNP, 50 mM KPO4, pH 7.4. An excerpt:
Expression, Purification, and Characterization of PyPNP. Recombinant PyPNP was expressed with a C-terminal 6×His tag and the c-myc epitope and purified from induced bacterial culture by nickel affinity chromatography under native conditions. Like PfPNP, recombinant PyPNP elutes from gel filtration chromatography as a single peak consisting of homohexameric protein (≈180 kDa; data not shown). On a denatured SDS-PAGE gel, the protein ran as a single band with a molecular mass of 29.94 kDa. […] The catalytic efficiencies (kcat/Km) of PyPNP for these substrates were very similar to those observed in PfPNP (Table 2).
Cloning and Expression of P. yoelii PNP. PyPNP was identified as a protein of 244 amino acids and 26.943 kDa by protein sequence homology to PfPNP (gene PY04622; PlasmoDB.org). The PyPNP open reading frame (ORF) sequence was amplified by PCR from genomic DNA of P. yoelii strain YM with primers PyPNP-F (5′-[…]-3′) (SEQ ID NO:8) and PyPNP-R (5′-[…]-3′) (SEQ ID NO:9). The 729 by PCR product was ligated into a pTrcHis2-TOPO vector (Invitrogen) and expressed in E. coli strain TOP 10. Recombinant PyPNP with a C-terminal 6×His tag and the c-myc epitope was induced with 1 mM IPTG at 37° C. for 10 h and purified by nickel chromatography. The purified PyPNP was >95% homogeneous based on denaturing polyacrylamide gel electrophoresis and staining with Coomassie blue. Protein concentration was measured by Bradford protein assay (Bio-Rad).
(§1) Enzymatic Assays and Determination of Kinetic Constants. All phosphorylase activity assays were performed with purified enzyme in 50 mM KPO4, pH 7.4 as described^1. Briefly, phosphorylysis of inosine, 2′-deoxyinosine, and 5′-methylthioinosine was measured in a coupled assay with 115 milliunits/ml xanthine oxidase to convert hypoxanthine into uric acid. Uric acid formation was followed by spectrophotometric measurement at 293 nm (E293=12.9 mM^−1 cm^−1). Phosphorylysis of guanosine to guanine was monitored by measuring the disappearance of guanosine at 258 nm (E258=5.2 mM^−1 cm^−1). Adenosine and 5′-methylthioadenosine phosphorylase activities were measured by following the disappearance of the substrate at 265 nm (E256=1.9 mM^−1 cm^−1). Uridine phosphorylase activity was measured by following the conversion of uridine to uracil at 272 nm (E260=2.9 mM^−1 cm^−1). The Michaelis constant Km was determined as the substrate concentration at ½ the maximum velocity. The kcat was determined for each substrate by fits of substrate saturation data to the Michaelis-Menten equation. Values for kcat assume one catalytic site per subunit and are expressed as moles of product per second per mole of subunit.

The next data set concerns the target T1, P. falciparum PNP (Plasmodium falciparum, UniProt Q8I3X4).
T1 sequence (Q8I3X4 1-245): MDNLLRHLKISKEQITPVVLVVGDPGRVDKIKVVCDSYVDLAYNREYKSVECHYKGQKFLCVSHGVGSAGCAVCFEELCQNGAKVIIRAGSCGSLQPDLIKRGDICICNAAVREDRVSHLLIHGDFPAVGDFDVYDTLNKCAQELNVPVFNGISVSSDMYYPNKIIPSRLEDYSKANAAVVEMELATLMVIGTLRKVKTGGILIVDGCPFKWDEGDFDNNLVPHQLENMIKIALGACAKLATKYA
As to the kind of experiment: Phosphorylase activity assay, kinetic constants of PfPNP. The conditions noted are these: substrate of P. falciparum PNP. As to the method: as §1

Substrate in data set [1]: Nc1nc2c(ncn2[C@@H]2O[C@H](CO)[C@@H](O)[C@H]2O)c(=O)[nH]1
The data set is described as above. The conditions noted are these: other: substrate of P. falciparum PNP; pH 7.4. As to the method: as §1

Substrate in data set [2]: OC[C@H]1O[C@@H](n2cnc3c(O)ncnc32)C[C@@H]1O
The data set is described as above. The conditions noted are these: other: substrate of P. falciparum PNP; pH 7.4. As to the method:
as §1

Substrate in data set [3]: OC[C@H]1O[C@@H](n2cnc3c(O)ncnc32)[C@H](O)[C@@H]1O
The data set is described as above. The note with it: other: substrate of P. falciparum PNP; pH 7.4. How it is done: as §1

Usually Km stands for the concentration of substrate that gives half-maximal velocity. For orientation: kcat means the number of substrate molecules converted per active site and unit of time at saturation. On to `CSc1ncnc2c1ncn2[C@@H]1O[C@H](CO)[C@@H](O)[C@H]1O` [Methylthioinosine], for which, in the data set with P. yoelii PNP, the Km worked out at 5 ± 0.4 µM and the kcat is 3.4 ± 0.1 s⁻¹. Further, on P. falciparum PNP, the Km is 10.8 ± 0.9 µM and the kcat came out at 2.6 ± 0.8 s⁻¹.
Turning to `O=c1ccn([C@@H]2O[C@H](CO)[C@@H](O)[C@H]2O)c(=O)[nH]1` [uridine], in the data set with P. yoelii PNP (data not shown), the “PyPNP activity with substrate” value is on record as “no detectable activity”.
In the case of `OC[C@H]1O[C@@H](n2cnc3c(O)ncnc32)C[C@@H]1O` [2′-deoxyinosine], in the data set on P. yoelii PNP, the Km stood at 79 ± 10 µM and the kcat was found to be 1.2 ± 0.1 s⁻¹.
On the same counts, the results for `OC[C@H]1O[C@@H](n2cnc3c(O)ncnc32)[C@H](O)[C@@H]1O` [Inosine] are 8.6 ± 1.5 µM and 3.5 ± 0.1 s⁻¹.
On to `Nc1nc2c(ncn2[C@@H]2O[C@H](CO)[C@@H](O)[C@H]2O)c(=O)[nH]1` [Guanosine], for which, in the data set with P. yoelii PNP, the Km was determined as 8.9 ± 1.6 µM and the kcat was determined as 3.8 ± 0.2 s⁻¹.

B1: P. falciparum PNP (Plasmodium falciparum 3D7) (protein)
chain: MDNLLRHLKISKEQITPVVLVVGDPGRVDKIKVVCDSYVDLAYNREYKSVECHYKGQKFLCVSHGVGSAGCAVCFEELCQNGAKVIIRAGSCGSLQPDLIKRGDICICNAAVREDRVSHLLIHGDFPAVGDFDVYDTLNKCAQELNVPVFNGISVSSDMYYPNKIIPSRLEDYSKANAAVVEMELATLMVIGTLRKVKTGGILIVDGCPFKWDEGDFDNNLVPHQLENMIKIALGACAKLATKYA
One may read the kcat/Km as the turnover number divided by the Michaelis constant. In the case of B1, in data set [1], the Km amounted to 9.4 ± 1.2 µM, the turnover number (kcat) stood at 2.6 ± 0.5 s⁻¹ and the kcat/Km stood at 280000 M⁻¹ s⁻¹. Moreover, in data set [2], the Km came to 91 ± 35 µM, the kcat worked out at 0.9 ± 0.3 s⁻¹ and the kcat/Km amounted to 9800 M⁻¹ s⁻¹. In data set [3], the Km is 4.7 ± 0.9 µM, the kcat came to 1.1 ± 0.2 s⁻¹ and the kcat/Km was 230000 M⁻¹ s⁻¹.

These data come from patent US20100330126A1, “Attenuated malaria blood-stage vaccine” (priority 2009, published 2010).
